According to ChEMBL document CHEMBL1201862, “PubChem BioAssay data set” (2004):
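Protocol summary: plate cells (96-well), add compound at 5 concentrations, incubate 48 h, interpolate endpoints linearly. GI50 = concentration required for 50% inhibition of growth.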 Calls of active or inactive are those of the source. Cut-off read from the data, not from the text of the source: active = GI50 up to about 1.1 µM and inactive = higher.

Legend:
Assay in all cases: inhibition of tumour cell growth, NCI panel, 48 h
SK-MEL-2 = tested on: SK-MEL-2
RXF 393 = tested on: RXF 393
SNB-75 = tested on: SNB-75
EKVX = tested on: EKVX
K562 = tested on: K562
SF-295 = tested on: SF-295
UACC-62 = tested on: UACC-62
LXFL 529 = tested on: LXFL 529
UACC-257 = tested on: UACC-257
M19-MEL = tested on: M19-MEL
Malme-3M = tested on: Malme-3M
OVCAR-8 = tested on: OVCAR-8
HCT-15 = tested on: HCT-15
OVCAR-3 = tested on: OVCAR-3
SNB-78 = tested on: SNB-78
ACHN = tested on: ACHN

Row | Structure (SMILES) | GI50 (SK-MEL-2) | GI50 (RXF 393) | GI50 (SNB-75) | GI50 (EKVX) | GI50 (K562) | GI50 (SF-295) | GI50 (UACC-62) | GI50 (LXFL 529) | GI50 (UACC-257) | GI50 (M19-MEL) | GI50 (Malme-3M) | GI50 (OVCAR-8) | GI50 (HCT-15) [µM] | GI50 (OVCAR-3) | GI50 (SNB-78) | GI50 (ACHN)
1 | O=C(/C=C/c1cccc([N+](=O)[O-])c1)c1cccnc1 | > 100 µM (inactive) | 18.1 µM (inactive) | > 52.8 µM (inactive) | > 100 µM (inactive) | 29.4 µM (inactive) | 46 µM (inactive) | 30.2 µM (inactive) | 21 µM (inactive) | 23.9 µM (inactive) | 31.2 µM (inactive) | > 89.9 µM (inactive) | 34.6 µM (inactive) | 43.5 | 27.5 µM (inactive) | 41.2 µM (inactive) | 71.1 µM (inactive)
2 | Cc1ccccc1N(CCC#N)C1=NN(C(=O)CC(=O)Nc2ccc(Cl)cc2)C(c2ccccc2)C1 (centres undefined) | > 100 µM (inactive) | > 100 µM (inactive) | > 100 µM (inactive) | > 100 µM (inactive) | > 100 µM (inactive) | > 100 µM (inactive) | > 100 µM (inactive) | > 100 µM (inactive) | > 100 µM (inactive) | > 100 µM (inactive) | > 100 µM (inactive) | > 100 µM (inactive) | > 100 | > 100 µM (inactive) | > 100 µM (inactive) | > 100 µM (inactive)
3 | Cn1cnc([N+](=O)[O-])c1Sc1nc2cccnc2s1 |  | 17.8 µM (inactive) | 25.2 µM (inactive) | 17.5 µM (inactive) |  | > 100 µM (inactive) | 17.5 µM (inactive) | 12.4 µM (inactive) | 13.3 µM (inactive) | 14.9 µM (inactive) | 10.1 µM (inactive) | 16.1 µM (inactive) | 11.6 | 14.6 µM (inactive) | 46.9 µM (inactive) | 24.5 µM (inactive)
4 | Cc1cc(O)nc(NNC(C#N)c2ccc([N+](=O)[O-])cc2)n1 (centres undefined) | > 100 µM (inactive) | 93.8 µM (inactive) | 34.8 µM (inactive) |  | > 100 µM (inactive) | > 100 µM (inactive) | > 100 µM (inactive) | > 100 µM (inactive) | > 100 µM (inactive) | > 100 µM (inactive) | 70.1 µM (inactive) | > 100 µM (inactive) | > 100 | > 100 µM (inactive) | 42.6 µM (inactive) | 74.8 µM (inactive)
5 | Nc1c(Cl)ncnc1NCCCCCCCCCCCCNc1ncnc(Cl)c1N | 2.35 µM (inactive) | 1.54 µM (inactive) | 1.28 µM (inactive) | 3.44 µM (inactive) | < 0.01 µM (active) | 1.01 µM (active) | 2.05 µM (inactive) | 0.218 µM (active) | 0.0671 µM (active) | 2.59 µM (inactive) | 1.94 µM (inactive) | 1.9 µM (inactive) | 1.88 | < 0.01 µM (active) | 0.137 µM (active) | 
6 | CC(=O)OCC(OC(C)=O)C(OC(C)=O)C(OC(C)=O)C(=O)CNn1c(-c2ccccc2Cl)nc2ccc(Br)cc2c1=O (centres undefined) | > 100 µM (inactive) | 67 µM (inactive) | 59.8 µM (inactive) | > 100 µM (inactive) | 44 µM (inactive) | > 100 µM (inactive) | 30.6 µM (inactive) | 36.9 µM (inactive) | > 100 µM (inactive) | > 100 µM (inactive) | > 100 µM (inactive) | 76.9 µM (inactive) | 78.7 | 62.2 µM (inactive) | 65.6 µM (inactive) | > 100 µM (inactive)
7 | CN[C@H](C)[C@@H](OC)c1ccccc1 | > 100 µM (inactive) | > 100 µM (inactive) | 61.4 µM (inactive) | > 100 µM (inactive) | > 100 µM (inactive) | > 100 µM (inactive) | > 100 µM (inactive) | > 100 µM (inactive) | > 100 µM (inactive) | > 100 µM (inactive) | > 100 µM (inactive) | > 100 µM (inactive) | > 100 | > 100 µM (inactive) | > 100 µM (inactive) | > 100 µM (inactive)
8 | CC(=O)NC(CCCCNCc1ccccc1)C(=O)NCc1ccccc1 (centres undefined) | > 100 µM (inactive) | > 100 µM (inactive) | 30.5 µM (inactive) | > 100 µM (inactive) | > 100 µM (inactive) | > 100 µM (inactive) | > 100 µM (inactive) | > 100 µM (inactive) | > 100 µM (inactive) | > 100 µM (inactive) | > 100 µM (inactive) | > 100 µM (inactive) | > 100 | > 100 µM (inactive) | > 100 µM (inactive) | > 100 µM (inactive)
9 | COC(=O)C(=O)CC(=O)CCn1ncc(Cl)c(Cl)c1=O | 18.1 µM (inactive) | 20.2 µM (inactive) | 20.8 µM (inactive) | 19.5 µM (inactive) | 3.56 µM (inactive) | 13.7 µM (inactive) | 10 µM (inactive) | 10 µM (inactive) | 15.8 µM (inactive) | 4.01 µM (inactive) | 18.7 µM (inactive) | 13.3 µM (inactive) | 4.14 | 12.8 µM (inactive) | 20.5 µM (inactive) | 20.1 µM (inactive)
10 | CC(=O)OC1(C#N)CC2OC1C1NC21 (centres undefined) | > 100 µM (inactive) | > 100 µM (inactive) | > 100 µM (inactive) | > 100 µM (inactive) | > 100 µM (inactive) |  | > 100 µM (inactive) | > 100 µM (inactive) |  | > 100 µM (inactive) | > 100 µM (inactive) | > 100 µM (inactive) | > 100 |  | > 100 µM (inactive) | > 100 µM (inactive)
11 | N#CC(C(=N/O)/C(=N/O)C(C#N)c1ccc(Cl)cc1)c1ccc(Cl)cc1 (centres undefined) | > 100 µM (inactive) | 46.7 µM (inactive) | 42 µM (inactive) | > 100 µM (inactive) |  | > 100 µM (inactive) | 91.4 µM (inactive) | 30.4 µM (inactive) | > 100 µM (inactive) | > 100 µM (inactive) | > 100 µM (inactive) | 40 µM (inactive) | 55.2 | > 100 µM (inactive) | 23.4 µM (inactive) | > 100 µM (inactive)
12 | CCc1ccccc1NC(=O)C1=C(C)NC(C)=C(C(=O)Nc2ccccc2CC)C1c1ccc2c(c1)OCO2 | 19.2 µM (inactive) | 20 µM (inactive) | 23.7 µM (inactive) | 31.3 µM (inactive) | 26.5 µM (inactive) | 33.3 µM (inactive) |  | 31.3 µM (inactive) | 30.9 µM (inactive) | 40.9 µM (inactive) | 25.3 µM (inactive) | 33.7 µM (inactive) |  | 22.5 µM (inactive) | 34 µM (inactive) | 22.8 µM (inactive)
13 | Oc1cccnc1/C=N/OCc1ccccc1 | > 100 µM (inactive) | 23.6 µM (inactive) | > 100 µM (inactive) | > 100 µM (inactive) | > 100 µM (inactive) | > 100 µM (inactive) | > 100 µM (inactive) | > 100 µM (inactive) | > 100 µM (inactive) | > 100 µM (inactive) | > 100 µM (inactive) | > 100 µM (inactive) | > 100 | > 100 µM (inactive) | > 100 µM (inactive) | > 100 µM (inactive)
14 | O=C(CCc1nnc2s/c(=C\c3ccccc3[N+](=O)[O-])c(=O)n12)Nc1cc(Cl)c(Cl)cc1Cl | 92.7 µM (inactive) | 22 µM (inactive) | 20.5 µM (inactive) | 37.9 µM (inactive) | 22 µM (inactive) | 18.7 µM (inactive) | 40.4 µM (inactive) | 21.8 µM (inactive) | 63.4 µM (inactive) | 43.2 µM (inactive) | 48.2 µM (inactive) | 25.9 µM (inactive) | 40.4 | 18.2 µM (inactive) | 35.2 µM (inactive) | 35.8 µM (inactive)
15 | Cc1ccc(S(=O)(=O)NC2CCCCO2)cc1 (centres undefined) |  | > 100 µM (inactive) | > 100 µM (inactive) | > 100 µM (inactive) | > 100 µM (inactive) |  | > 100 µM (inactive) | > 100 µM (inactive) | > 100 µM (inactive) | > 100 µM (inactive) | > 100 µM (inactive) | > 100 µM (inactive) | > 100 | > 100 µM (inactive) | > 100 µM (inactive) | > 100 µM (inactive)
16 | CCC1(CN(C)C)CC/C(=C\c2ccc(OC)c(OC)c2)C1=O (centres undefined) | > 100 µM (inactive) | > 100 µM (inactive) | > 67.8 µM (inactive) | > 54.6 µM (inactive) | 57.4 µM (inactive) | > 100 µM (inactive) | > 69.3 µM (inactive) | > 92 µM (inactive) | > 100 µM (inactive) | > 100 µM (inactive) | > 100 µM (inactive) | > 100 µM (inactive) | > 100 | 97.9 µM (inactive) | > 100 µM (inactive) | > 100 µM (inactive)
17 | C=Cc1ccc(C)[n+](C[Si](C)(C)O[Si](C)(C)C[n+]2cc(C=C)ccc2C)c1 | > 100 µM (inactive) | > 100 µM (inactive) | > 100 µM (inactive) | 54.2 µM (inactive) | > 100 µM (inactive) | > 100 µM (inactive) | > 100 µM (inactive) | > 100 µM (inactive) | > 100 µM (inactive) | > 100 µM (inactive) | > 100 µM (inactive) | > 100 µM (inactive) |  | > 100 µM (inactive) | > 100 µM (inactive) | > 100 µM (inactive)
18 | Cc1ccc(C)c(NC(=O)c2cccc([N+](=O)[O-])c2O)c1 |  | 0.871 µM (active) | 20.4 µM (inactive) | 29.5 µM (inactive) | > 100 µM (inactive) | 18.4 µM (inactive) | 5.74 µM (inactive) | 35.5 µM (inactive) | 16.1 µM (inactive) | 24.7 µM (inactive) | 17.8 µM (inactive) | 32.1 µM (inactive) | 28.8 | 27.1 µM (inactive) | 14.1 µM (inactive) | 15.1 µM (inactive)
